Some test systems named below: HCC 2998; OVCAR-4; HL-60; BT-549; NCI/ADR-RES; UACC-62; KM12; UO-31; OVCAR-3; T47D; SK-MEL-2; HCT-15; SW-620; K562; MDA-N; SNB-75; NCI-H522; M14; SF-539; MCF7.
What all share (assay): DTP human tumour cell line panel, 48 h

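A five-concentration, 48-hour dose response in 96-well plates underlies each endpoint, interpolated linearly between surrounding concentrations. GI50: concentration for 50% inhibition of growth.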 Calls of active or inactive are those of the source. Cut-off read from the data, not from the text of the source: active = GI50 up to about 1.1 µM and inactive = higher. Where only a bound is given, the exact number is not on record here.

What is called GI50 is the concentration that inhibits growth by half. On to `NC(=O)CC1(O)C=CC(=O)C=C1`, for which the GI50 in the test on HCC 2998, in the test on OVCAR-4, in the test with HL-60, with BT-549, in the test on NCI/ADR-RES and in the test on UACC-62 was > 100 µM (inactive) each time. For the same compound, the GI50 was > 100 µM (inactive) in the test on KM12; > 100 µM (inactive) in the test on UO-31; > 100 µM (inactive) in the test with OVCAR-3; > 100 µM (inactive) with T47D; > 100 µM (inactive) in the test on SK-MEL-2; above 100 µM with HCT-15. Besides, the GI50 with SW-620 was > 100 µM (inactive); with K562 it was > 100 µM (inactive); in the test with MDA-N, > 100 µM (inactive); in the test on SNB-75, > 100 µM (inactive); with NCI-H522 it was 26.8 µM (inactive); with M14, > 100 µM (inactive). For the same compound, the GI50 in the test on SF-539 and with MCF7 was > 100 µM (inactive) throughout.

As for `Clc1nc2c(N3CCCC3)nc(N3CCNCC3)nc2[nH]1`, the GI50 with HCC 2998 is 15.9 µM (inactive); in the test with OVCAR-4, 18.5 µM (inactive); in the test with HL-60 it was 19.5 µM (inactive); in the test on BT-549 it was 29.4 µM (inactive); in the test on NCI/ADR-RES it was 37.2 µM (inactive); with UACC-62 it was 17.4 µM (inactive). Further, the GI50 is 18.1 µM (inactive) with KM12; 15.7 µM (inactive) with UO-31; 18 µM (inactive) in the test with OVCAR-3; 16.9 µM (inactive) in the test on T47D; 18.4 µM (inactive) with SK-MEL-2; 18.9 µM in the test with HCT-15. The GI50 in the test with SW-620 is 21.2 µM (inactive); in the test on K562, 23.1 µM (inactive); with MDA-N, 17.6 µM (inactive); in the test on SNB-75 it was 20.1 µM (inactive); with NCI-H522 it was 17 µM (inactive); in the test with M14, 19.7 µM (inactive). The GI50 is 18.4 µM (inactive) with SF-539 and 17.7 µM (inactive) in the test with MCF7.

Regarding `COc1cc(/C=C2\C[C@H]3[C@@H]4CC=C5C=C(N6CCCC6)CC[C@]5(C)[C@H]4CC[C@]3(C)C2=O)cc(OC)c1OC`, the GI50 is 1.93 µM (inactive) in the test with HCC 2998; 1.75 µM (inactive) in the test on OVCAR-4; 1.13 µM (inactive) in the test with HL-60; 2.12 µM (inactive) in the test with BT-549; 2.65 µM (inactive) with NCI/ADR-RES; 2.13 µM (inactive) in the test on UACC-62. Moreover, the GI50 in the test with KM12 is 1.91 µM (inactive); in the test on UO-31, 4.83 µM (inactive); in the test on OVCAR-3, 1.88 µM (inactive); with T47D it was 1.94 µM (inactive); with SK-MEL-2, 3.18 µM (inactive); with HCT-15 it was 2.23 µM. Moreover, the GI50 was 3.91 µM (inactive) with SW-620; 3.42 µM (inactive) in the test on K562; 2.32 µM (inactive) with MDA-N; 4.51 µM (inactive) in the test on SNB-75; 1.43 µM (inactive) in the test on NCI-H522; 2.19 µM (inactive) with M14. The figures for the GI50 with SF-539 and in the test with MCF7 were 3.5 µM (inactive) and 3.22 µM (inactive), respectively.

`COc1ccc(C)cc1Nc1nnc(-c2ccc(N)cc2)s1`: the GI50 in the test on HCC 2998 is 44.7 µM (inactive); in the test on OVCAR-4, > 100 µM (inactive); in the test on HL-60, 32.7 µM (inactive); in the test on BT-549, > 100 µM (inactive); in the test on NCI/ADR-RES it was > 100 µM (inactive); with UACC-62, > 100 µM (inactive). In addition, the GI50 with KM12 is 46.2 µM (inactive); with UO-31, 42 µM (inactive); with OVCAR-3, 73.6 µM (inactive); in the test with T47D, 36.1 µM (inactive); in the test on SK-MEL-2, 63.1 µM (inactive); in the test with HCT-15, 69.2 µM. For the same compound, the GI50 in the test on SW-620 was 88.1 µM (inactive); with K562, 35.8 µM (inactive); in the test with MDA-N, 30.4 µM (inactive); in the test with SNB-75, > 100 µM (inactive); in the test on NCI-H522, 60.3 µM (inactive); in the test on M14, > 100 µM (inactive). For the same compound, the values for the GI50 in the test with SF-539 and in the test with MCF7 were > 100 µM (inactive) and 46.3 µM (inactive), respectively.

Take `CC(NC1=NCCO1)c1ccsc1` (stereo not given): the GI50 is 69.3 µM (inactive) with HCC 2998; 24.9 µM (inactive) with OVCAR-4; 21.5 µM (inactive) with HL-60; 31.6 µM (inactive) in the test with BT-549; > 100 µM (inactive) in the test on NCI/ADR-RES; 17.6 µM (inactive) with UACC-62. For the same compound, the GI50 in the test on KM12 is 18.8 µM (inactive); in the test on UO-31, > 100 µM (inactive); in the test with OVCAR-3, 28.8 µM (inactive); in the test on T47D, 33.3 µM (inactive); in the test with SK-MEL-2 it was 21.9 µM (inactive); in the test with HCT-15, 40.7 µM. Further, the GI50 in the test with SW-620 was 21.5 µM (inactive); with K562, 21.4 µM (inactive); with MDA-N it was 24.2 µM (inactive); with SNB-75, 13.2 µM (inactive); in the test with NCI-H522 it was 17.7 µM (inactive); in the test on M14, 17.6 µM (inactive). Further, the GI50 in the test with SF-539 was 16.2 µM (inactive); in the test on MCF7, 34.8 µM (inactive).

On to `Oc1ccc(Nc2nc(Cl)c3nc[nH]c3n2)cc1`, for which the GI50 in the test with HCC 2998 was > 100 µM (inactive); with OVCAR-4, > 100 µM (inactive); in the test on HL-60, 34.5 µM (inactive); in the test on BT-549 it was > 100 µM (inactive); with NCI/ADR-RES it was > 100 µM (inactive); in the test with UACC-62, > 100 µM (inactive). Moreover, the GI50 was > 100 µM (inactive) in the test with KM12; > 100 µM (inactive) in the test on UO-31; > 100 µM (inactive) in the test on OVCAR-3; 61.9 µM (inactive) with T47D; 27.2 µM (inactive) in the test with SK-MEL-2; above 100 µM with HCT-15. Further, the GI50 in the test with SW-620 was > 100 µM (inactive); with K562 it was 50.8 µM (inactive); with MDA-N it was > 100 µM (inactive); in the test on SNB-75 it was > 100 µM (inactive); with NCI-H522 it was > 100 µM (inactive); in the test on M14 it was > 100 µM (inactive). The GI50 in the test on SF-539 and with MCF7 was > 100 µM (inactive) each time.

Regarding `O=C(CCCCCC(=O)N1CC(CCl)c2ccc([N+](=O)[O-])cc21)N1CC(CCl)c2ccc([N+](=O)[O-])cc21` (stereo not given), the GI50 with HCC 2998 was 23.7 µM (inactive); in the test on OVCAR-4, > 100 µM (inactive); in the test with HL-60, 75.3 µM (inactive); with BT-549 it was > 100 µM (inactive); in the test with NCI/ADR-RES, > 100 µM (inactive); with UACC-62, > 100 µM (inactive). Moreover, the GI50 is > 100 µM (inactive) in the test with KM12; > 100 µM (inactive) in the test on UO-31; > 100 µM (inactive) with OVCAR-3; > 100 µM (inactive) with T47D; > 100 µM (inactive) in the test with SK-MEL-2; above 100 µM in the test with HCT-15. Besides, the GI50 in the test with SW-620 was > 100 µM (inactive); in the test on K562, > 100 µM (inactive); with MDA-N, > 100 µM (inactive); in the test on SNB-75 it was 48.1 µM (inactive); with NCI-H522, > 100 µM (inactive); with M14, > 100 µM (inactive). Moreover, the GI50 was > 100 µM (inactive) with SF-539 and 36.9 µM (inactive) in the test with MCF7.

Turning to `CN1CCN(CN2C(=O)C3C4C=CC(C3C2=O)C2C(=O)N(CN3CCN(C)CC3)C(=O)C42)CC1` (stereo not given), the GI50 in the test on HCC 2998 is > 57.4 µM (inactive); in the test with OVCAR-4 it was > 100 µM (inactive); in the test with HL-60, 20.5 µM (inactive); in the test with BT-549, 52.2 µM (inactive); with NCI/ADR-RES, > 60.4 µM (inactive); with UACC-62, 35 µM (inactive). The GI50 with KM12 is 56.5 µM (inactive); in the test on UO-31 it was > 87.3 µM (inactive); in the test with OVCAR-3, > 59.6 µM (inactive); with T47D, > 68.4 µM (inactive); with SK-MEL-2 it was > 100 µM (inactive); in the test with HCT-15 it was 34 µM. For the same compound, the GI50 in the test with SW-620 was 4.97 µM (inactive); in the test on K562, 45.7 µM (inactive); in the test on MDA-N, > 57.3 µM (inactive); in the test on SNB-75 it was > 100 µM (inactive); with NCI-H522, > 42.1 µM (inactive); in the test with M14, > 51.3 µM (inactive). The GI50 was > 49.3 µM (inactive) in the test with SF-539 and 27.2 µM (inactive) in the test on MCF7.

For the compound `COc1cccc(/C=C/c2ccnc3ccccc23)c1OC`, the GI50 in the test with HCC 2998 was > 10 µM (inactive); with OVCAR-4 it was > 10 µM (inactive); in the test with HL-60, > 10 µM (inactive); in the test with BT-549 it was > 10 µM (inactive); in the test on NCI/ADR-RES it was 2.67 µM (inactive); with UACC-62, > 10 µM (inactive). Also, the GI50 in the test with KM12 was > 10 µM (inactive); in the test on UO-31 it was > 10 µM (inactive); in the test with OVCAR-3 it was 7.78 µM (inactive); with T47D it was 8.17 µM (inactive); in the test with SK-MEL-2, > 10 µM (inactive); in the test with HCT-15, above 10 µM. Also, the GI50 with SW-620 is > 10 µM (inactive); in the test with K562 it was 4.7 µM (inactive); with MDA-N, 4.94 µM (inactive); in the test with SNB-75 it was > 10 µM (inactive); with NCI-H522, > 10 µM (inactive); in the test with M14, > 10 µM (inactive). In addition, the GI50 in the test with SF-539 and in the test on MCF7 was > 10 µM (inactive) in each case.

For the compound `Cc1cc(O)c2c(c1)C[C@@H](O)C1=C2C(=O)c2c(O)ccc(OC3CC(O)C(OC4CC(OC5CCC(OC6CC(O)C(OC7CC(OC8CCC(O)C(C)O8)C(O)C(C)O7)C(C)O6)C(C)O5)C(O)C(C)O4)C(C)O3)c2C1=O` (stereo not given in full), the 50% growth inhibitory concentration (GI50) with HCC 2998 was 0.105 µM (active); in the test on OVCAR-4, 0.0179 µM (active); with HL-60 it was 0.0364 µM (active); in the test with BT-549, 0.327 µM (active); in the test on NCI/ADR-RES it was 0.0308 µM (active); in the test with UACC-62 it was 0.0702 µM (active). Besides, the 50% growth inhibitory concentration (GI50) with KM12 was 0.0998 µM (active); in the test on UO-31, 0.156 µM (active); in the test on OVCAR-3, 0.0641 µM (active); in the test with T47D it was 0.167 µM (active); in the test on SK-MEL-2, 0.0577 µM (active); in the test on HCT-15 it was 0.0684 µM. Moreover, the concentration for 50% growth inhibition (GI50) is 0.0381 µM (active) in the test with SW-620; 0.0653 µM (active) in the test on K562; 0.155 µM (active) in the test with MDA-N; 0.0573 µM (active) with SNB-75; 0.0188 µM (active) in the test with NCI-H522; 0.0789 µM (active) with M14. The GI50 in the test on SF-539 is 0.0716 µM (active); with MCF7 it was 0.324 µM (active).
